Reference: patent US11116740B2, “Methods for use in support of planned supplement and food ingredient products for diagnosis and treatment of metabolic syndrome” (priority 2015, dated 2021)

Experiments:
[1] = Serum fatty acid profile (% serum fatty acids, GC/MS), feeding study; format: in vivo, bottlenose dolphin (Tursiops truncatus)
Method: The dolphins started on a 100% capelin diet.
Changes in percent serum for the targeted fatty acids (C17:0, C20:4n6, and C22:0), as well as insulin, glucose, triglycerides, iron, transferrin saturation, and ferritin, were assessed among feeding study dolphins during weeks 3, 6, 12, 18 and 24 and compared to week 0 using pairwise comparison t-tests. Erythrocyte membrane fatty acids were measured during weeks 3, 6, 12, 18, and 24. Serum ferritin in Group A dolphins increased.
Blood was collected into BD Vacutainer serum separator tubes (for insulin, iron, ferritin, serum fatty acids profile, and serum chemistry), EDTA BD Vacutainer blood collection tubes (for erythrocyte fatty acid profile), and Lithium Heparin BD Vacutainer blood collection tubes (for plasma chemistry, including triglycerides). Blood tubes were centrifuged at 3000 rpm for 10 minutes within 30-60 minutes of collection and chilled during processing until shipment. Remaining serum/plasma was transferred to cryovials and stored at −80° C. until shipment on dry ice via overnight courier to the reference laboratories.
Serum and red blood cell membrane fatty acid profiles were performed by the Genetics Laboratories at the Kennedy Krieger Institute. Fatty acids were analyzed by capillary gas chromatography/mass spectrometry of pentaflourobenzyl bromide fatty acid derivatives using an AT-Silar-100 column (Grace, Columbia, Md. 21044) as previously described. For red blood cells only, the lipids were extracted with hexane:isopropanol before analysis. Each run was required to pass clinical laboratory quality control before the data were released. CV % were typically under 10%. Percent fatty acids in serum was used as a sturdier index to help reduce potential variability in serum among study dolphins. Iron, TIBC, and ferritin were analyzed at the Kansas State Veterinary Diagnostic Laboratory by colorimetric analysis on the Roche Cobas Mira (Roche Diagnostics, Indianapolis, Ind. 46250) per the manufacturer's protocol. Plasma triglycerides and glucose were directly measured using the Roche Cobas 8000 system (Roche Diagnostics, Indianapolis, Ind. 46250) per the manufacturers' protocol. Glucose was measured photometrically at the Animal Health Diagnostic Center at Cornell University on the Roche Diagnostics Modular Analytics P Module clinical chemistry analyzer (Roche Diagnostics, Indianapolis, Ind. 46250). Total insulin was analyzed at ARUP Laboratories by ultrafiltration/quantitative chemiluminescent immunoassay on the Siemens ADVIA Centaur Immunoassay system (Siemens Medical Solutions USA, Inc., Malvern, Pa. 19355).

[2] = Serum fatty acid metabolomics (UPLC-MS/MS), feeding study
Method: This study examined global metabolic profiles in six dolphins (“Group A dolphins”). The dolphins lived in netted enclosures within San Diego Bay. The dolphins started on a 100% capelin diet. Group A dolphins were fed one-third of their daily diet in the morning after their routine overnight fast and 2h postprandial, in-water, and trained blood samples were drawn (typically near 10:00 a.m.). An additional four dolphins (“Group C dolphins”) were fed the capelin diet.
Two hour post-prandial samples were collected from the dolphins at baseline (week 0) and at four time points following the switch to the modified diet: 6, 12, 18, and 24 weeks. Routine monthly samples collected from four reference dolphins that were housed in the same environment as the Group A dolphins were assessed for glucose, triglycerides, ferritin, and percent serum fatty acids.
Sample Preparation: Samples were prepared using the automated MicroLab STAR® system from Hamilton Company. Several recovery standards were added prior to the first step in the extraction process for QC purposes. Proteins were precipitated with methanol under vigorous shaking for 2 min (Glen Mills GenoGrinder 2000) followed by centrifugation. The resulting extract was divided into five fractions: two for analysis by two separate reverse phase (RP)/UPLC-MS/MS methods with positive ion mode electrospray ionization (ESI), one for analysis by RP/UPLC-MS/MS with negative ion mode ESI, one for analysis by HILIC/UPLC-MS/MS with negative ion mode ESI, and one sample was reserved. Samples were placed briefly on a TurboVap® (Zymark) to remove the organic solvent. The sample extracts were stored overnight under nitrogen before preparation for analysis.
Ultrahigh Performance Liquid Chromatography-Tandem Mass Spectroscopy (UPLC-MS/[…]): Each of four methods utilized a Waters ACQUITY ultra-performance liquid chromatography (UPLC) and a Thermo Scientific Q-Exactive high resolution/accurate mass spectrometer interfaced with a heated electrospray ionization (HESI-II) source and Orbitrap mass analyzer operated at 35,000 mass resolution. A sample extract was dried, then reconstituted in solvents compatible to each of the four methods. Each reconstitution solvent contained a series of standards at fixed concentrations to ensure injection and chromatographic consistency. A first aliquot was analyzed using acidic positive ion conditions, chromatographically optimized for more hydrophilic compounds. In this method, the extract was gradient eluted from a C18 column (Waters UPLC BEH C18-2. 1×100 mm, 1.7 μm) using water and methanol, containing 0.05% perfluoropentanoic acid (PFPA) and 0.1% formic acid (FA). A second aliquot was also analyzed using acidic positive ion conditions, however it was chromatographically optimized for more hydrophobic compounds. In this method, the extract was gradient eluted from the same afore mentioned C18 column using methanol, acetonitrile, water, 0.05% PFPA and 0.01% FA and was operated at an overall higher organic content. A third aliquot was analyzed using basic negative ion optimized conditions using a separate dedicated C 18 column. The basic extracts were gradient eluted from the column using methanol and water, however with 6.5 mM Ammonium Bicarbonate at pH 8. […] The MS analysis alternated between MS and data-dependent MSn scans using dynamic exclusion. The scan range varied slighted between methods but covered 70-1000 m/z.
Data Extraction and Compound Identification: Raw data was extracted, peak-identified and QC processed using Metabolon's hardware and software. The systems were based on a web-service platform utilizing Microsoft's .NET technologies, which ran on high-performance application servers and fiber-channel storage arrays in clusters to provide active failover and load-balancing. Compounds were identified by comparison to library entries of purified standards or recurrent unknown entities.

[3] = bottlenose dolphin (Tursiops truncatus), in vivo, 3 weeks
[4] = bottlenose dolphin (Tursiops truncatus), in vivo, 6 weeks
[5] = bottlenose dolphin (Tursiops truncatus), in vivo, 12 weeks
[6] = bottlenose dolphin (Tursiops truncatus), in vivo, 18 weeks
[7] = bottlenose dolphin (Tursiops truncatus), in vivo, 24 weeks
[8] = Group A dolphins, modified diet, proportional to value at outset of study

Serum fatty acids (%) [1, 3] [%] | Serum fatty acids (%) [1, 4] [%] | Serum fatty acids (%) [1, 5] [%] | Serum fatty acids (%) [1, 6] [%] | Serum fatty acids (%) [1, 7] [%] | serum concentration 6 wk / 0 wk [2, 4] | serum concentration 12 wk / 0 wk [2, 5] | serum concentration 18 wk / 0 wk [2, 6] | serum concentration 24 wk / 0 wk [2, 7] | serum levels compared to week 0 ([1]; in vivo) | serum concentration 6 wk / 0 wk [2, 8] | serum concentration 12 wk / 0 wk [2, 8] | serum concentration 18 wk / 0 wk [2, 8] | serum concentration 24 wk / 0 wk [2, 8] | Structure (SMILES) | Serum fatty acids (%) ([1]; Group A dolphins, modified diet, week 3) | Serum fatty acids (%) ([1]; Group A dolphins, modified diet, week 6) | Serum fatty acids (%) ([1]; Group A dolphins, modified diet, week 12) | Serum fatty acids (%) ([1]; Group A dolphins, modified diet, week 18) | Serum fatty acids (%) ([1]; Group A dolphins, modified diet, week 24)
6 ± 2 | 7 ± 2 | 10 ± 4 | 10 ± 3 | 10 ± 3 | 1.19 | 1.62 | 1.5 | 1.19 |  |  |  |  |  | CCCCC/C=C\C/C=C\C/C=C\C/C=C\CCCC(=O)O [Arachidonic acid, (5Z,8Z,11Z,14Z)-icosa-5,8,11,14-tetraenoic acid] |  |  |  |  | 
0.5 ± 0.2 | 0.5 ± 0.1 | 0.7 ± 0.3 | 0.8 ± 0.4 | 0.7 ± 0.2 |  |  |  |  | higher | 1.25 | 1.65 | 1.72 | 1.21 | CCCCCCCCCCCCCCCCC(=O)O [Heptadecanoic acid, heptadecanoic acid] |  |  |  |  | 
 |  |  |  |  |  |  |  |  |  |  |  |  |  | CCCCCCCCCCCCCCCCCCCCCC(=O)O [Behenic acid] | 0.21 ± 0.06 | 0.25 ± 0.07 | 0.28 ± 0.06 | 0.26 ± 0.04 | 0.29 ± 0.04
